# Reference: patent US10670605B2, “Cysteine reactive probes and uses thereof” (The Scripps Research Institute, priority 2015, dated 2020)
# Columns and labels:
# [1] = biological target: T1, cysteines in MDA-MB-231 and Ramos cells (Homo sapiens, UniProt Q9BRA2); test: Competitive isoTOP-ABPP in situ (fragment-treated cells); assay type: cell-based
# T1 sequence (Q9BRA2 1-123): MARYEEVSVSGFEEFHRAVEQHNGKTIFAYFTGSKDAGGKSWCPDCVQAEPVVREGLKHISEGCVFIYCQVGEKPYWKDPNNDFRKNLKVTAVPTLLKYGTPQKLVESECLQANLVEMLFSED
# IREB2 C137 (P48200) = biological target: T2, IREB2 C137 (P48200) (Homo sapiens, UniProt P48200); test: Competitive isoTOP-ABPP, cell lysates; assay type: binding
# T2 sequence (P48200 1-963): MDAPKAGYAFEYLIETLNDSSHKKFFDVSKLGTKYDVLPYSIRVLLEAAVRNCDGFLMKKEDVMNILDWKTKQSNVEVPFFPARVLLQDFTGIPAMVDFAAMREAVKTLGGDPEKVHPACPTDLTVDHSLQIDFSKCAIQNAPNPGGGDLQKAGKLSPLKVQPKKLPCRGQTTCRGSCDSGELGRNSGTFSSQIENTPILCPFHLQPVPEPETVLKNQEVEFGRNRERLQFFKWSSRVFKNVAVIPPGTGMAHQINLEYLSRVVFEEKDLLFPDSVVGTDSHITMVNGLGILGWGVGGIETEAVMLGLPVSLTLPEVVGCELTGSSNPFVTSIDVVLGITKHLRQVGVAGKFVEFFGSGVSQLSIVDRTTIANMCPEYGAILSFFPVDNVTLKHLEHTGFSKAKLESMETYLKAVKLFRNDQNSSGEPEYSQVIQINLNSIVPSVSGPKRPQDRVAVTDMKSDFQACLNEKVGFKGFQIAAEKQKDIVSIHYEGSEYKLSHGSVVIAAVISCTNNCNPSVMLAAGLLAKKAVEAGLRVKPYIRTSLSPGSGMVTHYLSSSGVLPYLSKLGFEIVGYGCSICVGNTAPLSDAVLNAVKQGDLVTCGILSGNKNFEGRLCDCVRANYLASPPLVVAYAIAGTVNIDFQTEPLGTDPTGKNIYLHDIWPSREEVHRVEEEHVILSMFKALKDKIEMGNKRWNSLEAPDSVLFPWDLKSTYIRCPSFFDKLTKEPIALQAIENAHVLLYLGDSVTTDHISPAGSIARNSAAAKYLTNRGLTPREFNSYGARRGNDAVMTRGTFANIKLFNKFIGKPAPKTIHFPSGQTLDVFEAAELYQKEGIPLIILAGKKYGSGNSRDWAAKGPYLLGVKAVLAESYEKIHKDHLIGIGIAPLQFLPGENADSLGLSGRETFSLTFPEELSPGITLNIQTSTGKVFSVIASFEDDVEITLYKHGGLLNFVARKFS
# LRBA C2675 (P50851) = LRBA C2675 (P50851) (Homo sapiens, UniProt P50851); test: Competitive isoTOP-ABPP, cell lysates; assay type: binding
# LRBA C2675 (P50851), sequence (P50851 whole entry): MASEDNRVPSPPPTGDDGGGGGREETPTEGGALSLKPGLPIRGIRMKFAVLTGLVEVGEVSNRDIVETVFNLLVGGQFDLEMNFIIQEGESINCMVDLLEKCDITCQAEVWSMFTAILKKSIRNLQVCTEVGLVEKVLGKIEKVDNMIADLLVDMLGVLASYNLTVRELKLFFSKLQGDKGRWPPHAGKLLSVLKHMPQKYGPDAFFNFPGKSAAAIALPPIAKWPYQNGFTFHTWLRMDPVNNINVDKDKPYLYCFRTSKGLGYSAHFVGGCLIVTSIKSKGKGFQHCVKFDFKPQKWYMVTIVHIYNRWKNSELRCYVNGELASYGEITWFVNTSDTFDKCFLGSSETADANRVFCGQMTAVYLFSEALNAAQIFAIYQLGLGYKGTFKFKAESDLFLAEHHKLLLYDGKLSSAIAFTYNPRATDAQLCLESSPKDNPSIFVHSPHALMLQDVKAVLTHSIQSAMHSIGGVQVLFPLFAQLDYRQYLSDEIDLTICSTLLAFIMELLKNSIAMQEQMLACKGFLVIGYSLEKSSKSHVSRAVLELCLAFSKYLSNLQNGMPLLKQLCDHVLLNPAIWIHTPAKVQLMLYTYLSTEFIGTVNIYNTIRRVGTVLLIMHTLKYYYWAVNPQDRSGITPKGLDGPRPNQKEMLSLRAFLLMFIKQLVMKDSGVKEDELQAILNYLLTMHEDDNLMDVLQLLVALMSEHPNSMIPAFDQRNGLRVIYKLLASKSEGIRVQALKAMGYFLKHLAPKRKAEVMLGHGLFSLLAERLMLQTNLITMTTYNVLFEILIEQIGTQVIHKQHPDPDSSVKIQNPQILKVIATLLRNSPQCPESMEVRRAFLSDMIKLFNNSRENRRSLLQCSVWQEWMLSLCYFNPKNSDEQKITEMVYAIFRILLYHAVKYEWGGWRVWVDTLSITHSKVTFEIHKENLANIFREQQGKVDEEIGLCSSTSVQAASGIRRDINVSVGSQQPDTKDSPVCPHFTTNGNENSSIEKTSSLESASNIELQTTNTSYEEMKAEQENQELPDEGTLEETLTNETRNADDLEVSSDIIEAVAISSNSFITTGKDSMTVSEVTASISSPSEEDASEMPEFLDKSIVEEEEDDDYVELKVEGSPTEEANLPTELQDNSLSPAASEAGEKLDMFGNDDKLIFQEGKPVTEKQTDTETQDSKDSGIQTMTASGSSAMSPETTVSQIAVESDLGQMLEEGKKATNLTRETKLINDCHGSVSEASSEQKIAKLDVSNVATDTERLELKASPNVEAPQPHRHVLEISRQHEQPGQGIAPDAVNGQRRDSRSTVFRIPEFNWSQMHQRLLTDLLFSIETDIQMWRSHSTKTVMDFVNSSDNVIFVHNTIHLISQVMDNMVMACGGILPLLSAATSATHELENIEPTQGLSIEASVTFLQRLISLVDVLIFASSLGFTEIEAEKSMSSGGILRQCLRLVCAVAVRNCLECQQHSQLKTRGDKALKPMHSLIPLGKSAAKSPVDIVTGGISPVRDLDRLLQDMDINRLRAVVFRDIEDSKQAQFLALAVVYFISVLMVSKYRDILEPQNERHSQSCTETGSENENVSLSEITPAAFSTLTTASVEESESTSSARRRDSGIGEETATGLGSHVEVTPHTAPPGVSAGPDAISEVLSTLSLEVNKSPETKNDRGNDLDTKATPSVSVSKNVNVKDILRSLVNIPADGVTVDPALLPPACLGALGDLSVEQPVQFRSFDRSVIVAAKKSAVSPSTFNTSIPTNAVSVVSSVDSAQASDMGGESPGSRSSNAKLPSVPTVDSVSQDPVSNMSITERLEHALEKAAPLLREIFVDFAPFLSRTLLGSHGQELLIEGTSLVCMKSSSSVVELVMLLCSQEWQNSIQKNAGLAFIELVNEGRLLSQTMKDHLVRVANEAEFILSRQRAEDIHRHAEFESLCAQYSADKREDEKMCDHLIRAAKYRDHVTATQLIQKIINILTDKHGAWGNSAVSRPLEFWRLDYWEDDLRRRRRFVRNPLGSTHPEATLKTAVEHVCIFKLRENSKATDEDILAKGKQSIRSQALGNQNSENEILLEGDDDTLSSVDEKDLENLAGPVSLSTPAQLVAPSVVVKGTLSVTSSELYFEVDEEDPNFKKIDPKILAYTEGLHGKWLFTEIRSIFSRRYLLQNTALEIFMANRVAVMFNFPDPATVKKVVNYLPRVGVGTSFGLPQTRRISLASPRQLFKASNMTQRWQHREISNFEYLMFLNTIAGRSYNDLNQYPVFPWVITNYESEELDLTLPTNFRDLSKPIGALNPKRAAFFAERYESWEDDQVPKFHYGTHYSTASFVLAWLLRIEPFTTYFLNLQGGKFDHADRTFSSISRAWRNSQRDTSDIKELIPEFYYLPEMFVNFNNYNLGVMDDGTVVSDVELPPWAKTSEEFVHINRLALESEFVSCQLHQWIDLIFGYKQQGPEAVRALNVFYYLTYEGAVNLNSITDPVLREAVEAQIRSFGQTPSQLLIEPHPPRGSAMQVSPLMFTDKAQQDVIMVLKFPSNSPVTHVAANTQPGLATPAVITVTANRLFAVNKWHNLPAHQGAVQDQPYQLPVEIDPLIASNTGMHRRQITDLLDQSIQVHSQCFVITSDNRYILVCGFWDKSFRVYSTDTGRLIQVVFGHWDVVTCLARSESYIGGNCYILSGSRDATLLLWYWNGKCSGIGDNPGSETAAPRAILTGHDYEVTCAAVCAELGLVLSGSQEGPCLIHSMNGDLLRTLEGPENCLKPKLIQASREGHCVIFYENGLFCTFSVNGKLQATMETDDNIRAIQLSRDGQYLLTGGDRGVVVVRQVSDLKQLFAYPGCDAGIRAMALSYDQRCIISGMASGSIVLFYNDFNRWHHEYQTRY
structure (smiles),measurement,setting,value
COc1ccc2c(c1)CCCN2C(=O)CCl [compound 2],isoTOP-ABPP reactivity Q9BRA2_C43 TXNDC17,"[1]; 200 μM, insitu, 231",15.5
same,R value (DMSO/fragment),"IREB2 C137 (P48200); 500 μM, invitro, ramos",10.5
same,R value (DMSO/fragment),"LRBA C2675 (P50851); 500 μM, invitro, ramos",3.0
O=C(CCl)Nc1cc(C(F)(F)F)cc(C(F)(F)F)c1 [compound 3],R value (DMSO/fragment),"LRBA C2675 (P50851); 500 μM, invitro, ramos",5.1
COc1ccc(C2CC(c3cccs3)=NN2C(=O)CCl)cc1 (stereo not shown) [compound 4],isoTOP-ABPP reactivity Q9BRA2_C43 TXNDC17,[1]; 100 μM in situ 231,3.5
same,R value (DMSO/fragment),"LRBA C2675 (P50851); 250 μM, in vitro, MDA-MB-231",1.1
C=CC(=O)N(c1ccccc1)c1ccc(Br)cc1 [compound 5],"isoTOP-ABPP ratio, P50851_C2675","LRBA C2675 (P50851); 500 μM, invitro, ramos",20.0
COc1cc2c(cc1OC)CN(C(=O)CCl)CC2 [compound 8],isoTOP-ABPP reactivity Q9BRA2_C43 TXNDC17,"[1]; 200 μM, insitu, 231",20.0
O=C(CCl)N1CCC(Cc2ccccc2)CC1 [compound 9],isoTOP-ABPP reactivity Q9BRA2_C43 TXNDC17,"[1]; 200 μM, insitu, 231",20.0
O=C(CCl)N1CCN(S(=O)(=O)c2ccccc2F)CC1 [compound 10],isoTOP-ABPP ratio Q9BRA2_C43,"[1]; 200 μM, insitu, 231",20.0
same,"isoTOP-ABPP ratio, P48200_C137","IREB2 C137 (P48200); 500 μM, invitro, ramos",2.1
same,"isoTOP-ABPP ratio, P50851_C2675","LRBA C2675 (P50851); 500 μM, invitro, ramos",1.3
Cn1cc(S(=O)(=O)N2CCOCC2)cc1C(=O)NC(=O)CCl [compound 11],isoTOP-ABPP ratio Q9BRA2_C43,[1]; 100 μM in situ 231,17.7
same,"isoTOP-ABPP ratio, P48200_C137","IREB2 C137 (P48200); 500 μM, invitro, ramos",3.7
same,"isoTOP-ABPP ratio, P50851_C2675","LRBA C2675 (P50851); 500 μM, invitro, ramos",1.3
O=C(CCl)NC(=O)NC12CC3CC(CC(C3)C1)C2 [compound 12],isoTOP-ABPP ratio Q9BRA2_C43,"[1]; 200 μM, insitu, 231",20.0
same,"isoTOP-ABPP ratio, P50851_C2675","LRBA C2675 (P50851); 500 μM, invitro, ramos",1.5
O=C(CCl)NCCc1c[nH]c2ccccc12 [compound 13],isoTOP-ABPP ratio Q9BRA2_C43,"[1]; 200 μM, insitu, 231",20.0
same,isoTOP-ABPP ratio Q9BRA2_C43,"[1]; 200 μM, insitu, ramos",5.2
C=CC(=O)N(Cc1cccnc1)c1ccc(Oc2ccccc2)c(C(F)(F)F)c1 [compound 15],"isoTOP-ABPP ratio (reactivity profile), P48200_C137",IREB2 C137 (P48200); 500 μm in-vitro ramos,2.0
same,"isoTOP-ABPP ratio (reactivity profile), P50851_C2675",LRBA C2675 (P50851); 500 μm in-vitro ramos,1.6
O=C(CCl)N1CCC(C(O)(c2ccccc2)c2ccccc2)CC1 [compound 20],"isoTOP-ABPP ratio (reactivity profile), P48200_C137",IREB2 C137 (P48200); 500 μm in-vitro ramos,5.2
O=C(CCl)NC12CC3CC(CC(C3)C1)C2 [compound 21],isoTOP-ABPP ratio Q9BRA2_C43,"[1]; 200 μM, insitu, 231",16.0
same,"isoTOP-ABPP ratio (reactivity profile), P50851_C2675",LRBA C2675 (P50851); 500 μm in-vitro ramos,1.5
same,"isoTOP-ABPP ratio (reactivity profile), P50851_C2675",LRBA C2675 (P50851); 500 μm in-vitro ramos_231,0.9
O=C(CCl)N1CCOCC1 [compound 22],"isoTOP-ABPP ratio (reactivity profile), P50851_C2675",LRBA C2675 (P50851); 500 μm in-vitro ramos,1.1
same,"isoTOP-ABPP ratio (reactivity profile), P50851_C2675",LRBA C2675 (P50851); 500 μm in-vitro ramos_231,1.1
N#C/C(=C\c1cc(C(F)(F)F)cc(C(F)(F)F)c1)C(N)=O [compound 23],"isoTOP-ABPP ratio (reactivity profile), P48200_C137",IREB2 C137 (P48200); 500 μm in-vitro ramos,1.6
same,"isoTOP-ABPP ratio (reactivity profile), P50851_C2675",LRBA C2675 (P50851); 500 μm in-vitro ramos,2.6
CC(Br)C(=O)Nc1cc(C(F)(F)F)cc(C(F)(F)F)c1 (stereo not shown) [compound 24],"isoTOP-ABPP ratio (reactivity profile), P50851_C2675",LRBA C2675 (P50851); 500 μm in-vitro ramos,1.0
O=C(/C=C/c1ccccc1)Nc1cc(C(F)(F)F)cc(C(F)(F)F)c1 [compound 26],"isoTOP-ABPP ratio (reactivity profile), P50851_C2675",LRBA C2675 (P50851); 500 μm in-vitro ramos,0.9
CC(C)CCOCCNC(=O)CCl [compound 27],isoTOP-ABPP ratio Q9BRA2_C43,"[1]; 200 μM, insitu, 231",20.0
same,"isoTOP-ABPP ratio (reactivity profile), P48200_C137",IREB2 C137 (P48200); 500 μm in-vitro ramos_231,1.4
O=C(CCl)N1CCN(CC(=O)N2CCOCC2)CC1 [compound 29],isoTOP-ABPP ratio Q9BRA2_C43,"[1]; 200 μM, insitu, ramos",2.3
same,"isoTOP-ABPP ratio (reactivity profile), P50851_C2675",LRBA C2675 (P50851); 500 μm in-vitro ramos_231,1.1
CCN(CC)c1ccc(S(N)(=O)=O)cc1NC(=O)CCl [compound 30],"isoTOP-ABPP ratio (reactivity profile), P50851_C2675",LRBA C2675 (P50851); 500 μm in-vitro ramos,0.9
C=CC(=O)N(Cc1cccnc1)c1cc(C(F)(F)F)cc(C(F)(F)F)c1 [compound 31],isoTOP-ABPP ratio Q9BRA2_C43,"[1]; 200 μM, insitu, 231",0.6
CC(C)(C)c1cc(NC(=O)CCl)on1 [compound 32],"isoTOP-ABPP reactivity ratio, P50851_C2675","LRBA C2675 (P50851); 500 μm, in-vitro_ramos",1.1
same,"isoTOP-ABPP reactivity ratio, P50851_C2675","LRBA C2675 (P50851); 500 μm, in-vitro_ramos_231",1.8
O=C(CCl)N(Cc1ccc(F)cc1)C12CC3CC(CC(C3)C1)C2 [compound 34],"isoTOP-ABPP reactivity ratio, P50851_C2675","LRBA C2675 (P50851); 500 μm, in-vitro_ramos",1.1
O=C(CCl)Nc1ccccc1C1CCCCCC1 [compound 35],"isoTOP-ABPP reactivity ratio, P48200_C137","IREB2 C137 (P48200); 500 μm, in-vitro_ramos",1.1
same,"isoTOP-ABPP reactivity ratio, P50851_C2675","LRBA C2675 (P50851); 500 μm, in-vitro_ramos",1.0
C=CC(=O)N1CCC(c2noc3ccc(F)cc23)CC1 [compound 37],"isoTOP-ABPP reactivity ratio, P48200_C137","IREB2 C137 (P48200); 500 μm, in-vitro_ramos",0.9
same,"isoTOP-ABPP reactivity ratio, P50851_C2675","LRBA C2675 (P50851); 500 μm, in-vitro_ramos",1.0
C=CC(=O)Nc1cc(F)c(N2CCN(C(=O)OC(C)(C)C)CC2)c(F)c1 [compound 38],isoTOP-ABPP ratio Q9BRA2_C43,"[1]; 200 μM, insitu, 231",1.1
C=CC(=O)Nc1cc(C)c(Br)cc1C [compound 40],"isoTOP-ABPP reactivity ratio, P48200_C137","IREB2 C137 (P48200); 500 μm, in-vitro_ramos",1.1
Cc1ccc(C=C(C#N)C(=O)NCCN2CCOCC2)cc1 [compound 41],isoTOP-ABPP ratio Q9BRA2_C43,"[1]; 200 μM, insitu, 231",0.6
same,"isoTOP-ABPP reactivity ratio, P48200_C137","IREB2 C137 (P48200); 500 μm, in-vitro_ramos_231",1.2
same,"isoTOP-ABPP reactivity ratio, P50851_C2675","LRBA C2675 (P50851); 500 μm, in-vitro_ramos_231",1.9
CC1CCc2ccccc2N1C(=O)CCl (stereo not shown) [compound 45],isoTOP-ABPP ratio Q9BRA2_C43,"[1]; 200 μM, insitu, 231",8.0
O=C(CCl)Nc1cccc2ncccc12 [compound 51],"isoTOP-ABPP reactivity profile ratio, P50851_C2675","LRBA C2675 (P50851); 500 μm, in-vitro_ramos",0.9
O=C(CCl)Nc1ccc(-c2ccccc2)cc1 [compound 52],"isoTOP-ABPP reactivity profile ratio, P48200_C137","IREB2 C137 (P48200); 500 μm, in-vitro_ramos",1.3
